One block for each compound: values may come before it.
Key:
[1] = target: Gamma-secretase; assay: Modulation of gamma-secretase in human SK-N-BE(2) cells expressing human APP695 assessed as reduction in amyloid beta 42 production incubated overnight by sandwich immunoassay; assay type: cell-based
[2] = system: Mus musculus; assay: Reduction in amyloid beta 42 levels in mouse brain at 10 mg/kg, po administered as single dose measured 4 hrs post dose by electrochemiluminescence assay; assay type: functional
[3] = target: Gamma-secretase; assay: Modulation of gamma-secretase in human SH-SY5Y cells expressing human APP751 assessed as reduction in amyloid beta 42 production after 24 hrs by sandwich ELISA; assay type: cell-based
[4] = system: Mus musculus; assay: Reduction in amyloid beta 42 levels in mouse brain at 30 mg/kg, po administered as single dose measured 4 hrs post dose by electrochemiluminescence assay; assay type: functional
[5] = system: Mus musculus; assay: Increase in amyloid beta 38 levels in mouse brain at 30 mg/kg, po administered as single dose measured 4 hrs post dose by ELISA; assay type: functional
[6] = system: Mus musculus; assay: Reduction in amyloid beta 42 levels in mouse brain at 30 mg/kg, po administered as single dose measured 4 hrs post dose by ELISA; assay type: functional
[7] = target: Gamma-secretase; assay: Modulation of gamma-secretase (unknown origin) assessed as reduction in amyloid beta 42 production by ELISA; assay type: protein-complex assay, Homo sapiens
[8] = target: Gamma-secretase; assay: Modulation of gamma-secretase in human H4 cells expressing human APP751 assessed as reduction in amyloid beta 42 production after 16 to 18 hrs by sandwich ELISA; assay type: cell-based
[9] = target: Gamma-secretase; assay: Modulation of gamma-secretase in human H4 cells expressing human APP695 assessed as reduction in amyloid beta 42 production after 22 hrs by electrochemiluminescence assay; assay type: cell-based
[10] = target: Gamma-secretase; assay: Modulation of gamma-secretase in human SH-SY5Y cells expressing human APP751 assessed as reduction in amyloid beta 42 production after 16 to 18 hrs by ELISA; assay type: cell-based
[11] = system: Mus musculus; assay: Reduction in amyloid beta 42 levels in Tg 2576 mouse brain at 50 to 100 mg/kg administered via oral gavage for 3 days by LC-MS/MS analysis; assay type: functional
[12] = target: Gamma-secretase; assay: Modulation of gamma-secretase in human H4 cells expressing human APP695 assessed as inhibition of amyloid beta 42 production after 16 hrs by sandwich ELISA; assay type: cell-based
[13] = system: Homo sapiens; assay: Reduction in amyloid beta 42 levels in human plasma at 250 mg, po administered as single dose measured over 24 hrs post dose by sandwich enzyme immunoassay; assay type: functional
[14] = system: Homo sapiens; assay: Reduction in amyloid beta (1 to 42 residues) […] in human plasma at 250 mg, po administered as single dose measured up to 24 hrs relative to control; assay type: functional
[15] = target: Gamma-secretase; assay: Modulation of gamma-secretase in human SH-SY5Y cells expressing human APP751 assessed as reduction in amyloid beta 42 production after 18 to 22 hrs by sandwich ELISA; assay type: cell-based
[16] = system: Mus musculus; assay: Reduction in amyloid beta (1 to 42 residues) AUC in triple transgenic mouse brain at 100 mg/kg administered via oral gavage measured up to 24 hrs by UPLC-MS-MS analysis; assay type: functional
[17] = system: Rattus norvegicus; assay: Reduction in amyloid beta (1 to 42 residues) AUC in Sprague-Dawley rat brain at 10 mg/kg administered via oral gavage measured up to 24 hrs by UPLC-MS-MS analysis; assay type: functional
[18] = system: Mus musculus; assay: Reduction in amyloid beta (1 to 42 residues) AUC in triple transgenic mouse brain at 30 mg/kg administered via oral gavage measured up to 24 hrs by UPLC-MS-MS analysis; assay type: functional
[19] = target: Gamma-secretase; assay: Modulation of gamma-secretase in human H4 cells expressing APP Swedish mutant assessed as inhibition of amyloid beta (1 to 42 residues) production; assay type: cell-based
[20] = species: Homo sapiens; assay: Modulation of gamma-secretase in human H4 cells expressing human APP695 assessed as inhibition of amyloid beta 42 production at 10 uM after 16 hrs by sandwich ELISA; assay type: functional

EC50 [1]: 6 nM
SMILES: Cc1cn(-c2ccc3n(c2=O)C[C@@H](C)N(C(C)c2coc4cc(F)c(C(F)(F)F)cc24)C3=O)cn1 (some centres not stated)
inhibition in vivo at 10 mg/kg [2]: 42%

EC50 [3]: 347 nM
SMILES: CCn1nc2c(c1Nc1nc(-c3ccc(-n4cnc(C)c4)cc3)cs1)CCCC2

EC50 [1]: 10 nM
SMILES: CCn1cc(C(C)N2C(=O)c3ccc(-n4cnc(C)c4)c(=O)n3C[C@H]2C)c2cc(Cl)c(F)cc21 (some centres not stated)
inhibition in vivo at 30 mg/kg [4]: 61%

EC50 [1]: 45 nM
SMILES: COc1cc2[nH]c(-c3cn4c(n3)C(c3ccccc3C(F)(F)F)OCC4)cc2cc1C#N (configuration not stated)
Activity [5]: 41%
inhibition in vivo at 30 mg/kg [6]: 57%

EC50 [1]: 20 nM
SMILES: COc1cc2[nH]c(-c3cn4c(n3)C(c3cccc(F)c3C)OCC4)cc2cc1C#N (configuration not stated)
Activity [5]: 40%
inhibition in vivo at 30 mg/kg [6]: 66%

SMILES: CC(=O)O[C@@H]([C@H]1C[C@@H](C)C2=C(O1)[C@H](O)[C@@]1(C)[C@@H]3CC[C@H]4C(C)(C)[C@@H](O[C@@H]5OC[C@@H](O)[C@H](O)[C@H]5O)CC[C@@]45C[C@@]35CC[C@]21C)C(C)(C)O
EC50 [7]: 100 nM

EC50 [8]: 49 nM
SMILES: COc1cc(Nc2ncc3c(n2)N(C)C2(CC2)CO3)ccc1-n1cnc(C)c1

EC50 [9]: 46 nM
SMILES: CCN1C(=O)C2CCCCCN2c2nc(Nc3ccc(-n4cnc(C)c4)c(OC)c3)ncc21 (configuration not stated)

EC50 [8]: 105 nM
SMILES: COc1cc(N2CCC(Nc3ncc4c(n3)N(CC(F)(F)F)CCO4)CC2)ccn1

EC50 [10]: 6 nM
SMILES: COc1cc(-c2csc(N3CCCn4nc5c(c43)CCCC5)n2)ccc1-n1cnc(C)c1

SMILES: CCc1cc(Nc2nc(-c3ccc(-n4cnc(C)c4)c(F)c3)cs2)c(C)cc1C
inhibition (INH) [11]: 30 - 40%

SMILES: C[C@H](CCC(=O)O)[C@H]1CC[C@H]2[C@@H]3CC[C@@H]4CCCC[C@]4(C)[C@H]3CC[C@]12C [URSOCHOLANIC ACID]
EC50 [12]: 5.7 µM

SMILES: COc1nc(/C=C/c2nc3n(n2)CCC[C@H]3c2ccccc2C(F)(F)F)ccc1-n1cnc(C)c1 [E-2212]
inhibition (INH) [13]: 54%
inhibition (INH) [14]: 44%

EC50 [8]: 16 nM
SMILES: COc1cc(Nc2ncc3c(n2)N(C)[C@@H](c2ccccc2)CO3)ccc1-n1cnc(C)c1

EC50 [8]: 14 nM
SMILES: COc1cc(Nc2ncc3c(n2)N(c2cc(F)cc(F)c2)CCO3)ccc1-n1cnc(C)c1

EC50 [15]: 1500 nM
SMILES: CCN(CC)c1ccc(Nc2nc(-c3ccc(-n4ccnc4)cc3)cs2)c(C)c1

EC50 [19]: 6 nM
SMILES: COc1cc(Nc2nc3n(n2)CCCC[C@H]3c2ccc(F)cc2)ccc1-n1cnc(C)c1
inhibition in vivo at 100 mg/kg [16]: 55%
inhibition in vivo at 10 mg/kg [17]: 47%
inhibition in vivo at 30 mg/kg [18]: 31%

EC50 [8]: 101 nM
SMILES: COc1cc(Nc2ncc3c(n2)N(CC(F)(F)F)CCO3)ccc1-n1cnc(C)c1

EC50 [3]: 1300 nM
SMILES: CCn1nc2c(c1Nc1nc(-c3ccc(-n4cnc(C)c4)nc3)cs1)CCCC2

EC50 [1]: 21 nM
SMILES: COc1cc2[nH]c(-c3cn4c(n3)C(c3ccccc3Cl)OCC4)cc2cc1C#N (configuration not stated)
Activity [5]: 10%
inhibition in vivo at 30 mg/kg [6]: 73%

EC50 [3]: 30 nM
SMILES: CCn1nc2c(c1Nc1nc(-c3ccc(-n4cnc(C)c4)c(OC)n3)cs1)CCCC2

SMILES: C[C@H](CCC(=O)O)[C@H]1CC[C@H]2[C@@H]3CC[C@@H]4C[C@H](O)CC[C@]4(C)[C@H]3CC[C@]12C [LITHOCHOLIC ACID]
inhibition at 10 µM [20]: 62%

EC50 [1]: 50 nM
SMILES: Cc1cn(-c2ccc3n(c2=O)CC2CCC(Cc4cc(C(F)(F)F)cc(C(F)(F)F)c4)N2C3=O)cn1 (configuration not stated)

EC50 [8]: 39 nM
SMILES: COc1cc(Nc2ncc3c(n2)N(c2ccccc2)CCO3)ccc1-n1cnc(C)c1

EC50 [8]: 25 nM
SMILES: COc1cc(N2CCC(Nc3ncc4c(n3)N(c3ccccc3)CCO4)CC2)ccn1

EC50 [19]: 29 nM
SMILES: CNc1nc(Cc2ccccc2)nc(Nc2ccc(-n3cnc(C)c3)c(OC)c2)n1

EC50 [9]: 90 nM
SMILES: COc1cc(Nc2nc3c(c(N4CCCCC4)n2)SC2(CCC2)C3)ccc1-n1cnc(C)c1

EC50 [9]: 22 nM
SMILES: COc1cc(Nc2ncc3c(n2)N(C)C2(CCCC2)C(=O)N3CC(F)(F)F)ccc1-n1cnc(C)c1

EC50 [8]: 71 nM
SMILES: COc1cc(Nc2ncc3c(n2)N2CCCC2CO3)ccc1-n1cnc(C)c1 (configuration not stated)

EC50 [8]: 41 nM
SMILES: Cc1cc([C@@H]2CC[C@@H](Nc3ncc4c(n3)N(c3ccccc3Cl)CCO4)CO2)ccn1

From ChEMBL document CHEMBL4431306, “Gamma Secretase Modulators: New Alzheimer's Drugs on the Horizon?” (J Med Chem, 2016)
